Laboratory results from patent publication US11767322B2 (BRISTOL-MYERS SQUIBB COMPANY, priority 2020, dated 2023).
Read-outs that look alike come from different tables or passages of the source.

Assays:
[1] = target: T1, His-GST-TVMV-hRIPK1(1-324) (Homo sapiens, UniProt Q13546); assay: biochemical; format: binding; conditions: HTRF probe displacement, 1 h at rt; read-out: RIPK1 IC50
T1 construct: The coding region of human RIPK1(1-324) flanked by NdeI site at 5′ end; made in house; host or cells: Spodoptera frugiperda Sf9 insect cells (baculovirus, Bac-to-Bac)
T1 sequence (Q13546 1-324): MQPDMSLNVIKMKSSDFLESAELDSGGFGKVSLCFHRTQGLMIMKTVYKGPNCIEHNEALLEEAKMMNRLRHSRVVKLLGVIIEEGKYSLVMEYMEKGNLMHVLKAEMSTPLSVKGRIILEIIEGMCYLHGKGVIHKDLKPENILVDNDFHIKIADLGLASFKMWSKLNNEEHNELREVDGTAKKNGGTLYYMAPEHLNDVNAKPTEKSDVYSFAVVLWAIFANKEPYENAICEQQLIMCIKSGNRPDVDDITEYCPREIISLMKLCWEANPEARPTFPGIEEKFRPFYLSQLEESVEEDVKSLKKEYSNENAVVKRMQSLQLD

[2] = system: MLKL phosphorylation in HT29-L23 human colorectal adenocarcinoma cells; assay: MLKL phosphorylation high-content assay; format: cell-based; conditions: necroptosis induced with TNFα, SMAC mimetic and Z-VAD, 6 h, maximal inhibition defined by Nec1s
[3] = read-out: pMLKL IC50, HT29-L23 cells
[4] = Homo sapiens, read-out: pMLKL IC50, HT29-L23 cells

Compound | IC50 [1] [nM] | IC50 [2, 3] [nM] | IC50 [2, 4] [nM]
[2H]C([2H])(CC([2H])(O)c1ccc(Cl)cc1)NC(=O)c1c(Cl)ccc(-c2ccn3nc(N)nc3c2)c1F (single isomer, unassigned) [Example 77, 3-(2-amino-[1,2,4]triazolo[1,5-a]pyridin-7-yl)-6-chloro-N-(3-(4-chlorophenyl)-3-hydroxypropyl-1,1,3-d3)-2-fluorobenzamide] | 2.9 | 7.7 | 
Nc1nc2cc(-c3ccc(Cl)c(C(=O)NCC(F)(F)Cc4ccc(F)cc4)c3F)ccn2n1 [Example 207, 3-(2-amino-[1,2,4]triazolo[1,5-a]pyridin-7-yl)-6-chloro-N-(2,2-difluoro-3-(4-fluorophenyl)propyl)-2-fluorobenzamide] | 1.8 |  | 0.6
COC(c1ccc(F)cc1)C(F)(F)CNC(=O)c1c(C)ccc(-c2ccn3nc(N)nc3c2)c1F (single isomer, unassigned) [Example 234, 3-(2-amino-[1,2,4]triazolo[1,5-a]pyridin-7-yl)-N-(2,2-difluoro-3-(4-fluorophenyl)-3-methoxypropyl)-2-fluoro-6-methylbenzamide] | 8.4 | 3 | 
Cc1cc(F)c(-c2ccn3nc(N)nc3c2)cc1C(=O)NCCC(O)c1ccc(F)cc1 (centres unmarked) [Example 8, 5-(2-amino-[1,2,4]triazolo[1,5-a]pyridin-7-yl)-4-fluoro-N-(3-(4-fluorophenyl)-3-hydroxypropyl)-2-methylbenzamide] | 5.1 |  | 2.3
Cc1ccc(-c2ccn3nc(N)nc3c2)c(F)c1C(=O)NCC(F)(F)C(O)c1ccnc(C(F)(F)F)c1 (single isomer, unassigned) [Example 260, 3-(2-amino-[1,2,4]triazolo[1,5-a]pyridin-7-yl)-N-(2,2-difluoro-3-hydroxy-3-(2-(trifluoromethyl)pyridin-4-yl)propyl)-2-fluoro-6-methylbenzamide] | 8.4 | 3.2 | 
[2H]C([2H])([2H])c1ccc(-c2ccn3nc(N)nc3c2)c(F)c1C(=O)NCC1(C(O)c2ccc(F)cc2)CC1 (single isomer, unassigned) [Example 307, 3-(2-amino-[1,2,4]triazolo[1,5-a]pyridin-7-yl)-2-fluoro-N-((1-((4-fluorophenyl) (hydroxy)methyl)cyclopropyl)methyl)-6-(methyl-d3)benzamide] | 9.6 |  | 14
COC(c1ccc(F)cc1)C(F)(F)CNC(=O)c1c(C)ccc(-c2ccn3nc(N)nc3c2)c1F (single isomer, unassigned) [Example 233, 3-(2-amino-[1,2,4]triazolo[1,5-a]pyridin-7-yl)-N-(2,2-difluoro-3-(4-fluorophenyl)-3-methoxypropyl)-2-fluoro-6-methylbenzamide] | 2.6 | 0.5 | 
Cc1cc(F)c(-c2ccn3nc(N)nc3c2)cc1C(=O)NCC(F)(F)C(C)(O)c1ccc(Cl)cc1 (single isomer, unassigned) [Example 226, 5-(2-amino-[1,2,4]triazolo[1,5-a]pyridin-7-yl)-N-(3-(4-chlorophenyl)-2,2-difluoro-3-hydroxybutyl)-4-fluoro-2-methylbenzamide] | 8.3 | 2.2 | 
Cc1ccc(-c2ccn3nc(N)nc3c2)c(F)c1C(=O)NCC(C)(F)C(O)c1ccc(F)cc1 (single isomer, unassigned) [Example 202, 3-(2-amino-[1,2,4]triazolo[1,5-a]pyridin-7-yl)-2-fluoro-N-(2-fluoro-3-(4-fluorophenyl)-3-hydroxy-2-methylpropyl)-6-methylbenzamide] | 13 | 2.1 | 
[2H]C([2H])([2H])c1ccc(-c2ccn3nc(N)nc3c2)c(F)c1C(=O)NCC(F)(F)C(O)c1ccc(F)cc1 (centres unmarked) [Example 123, 3-(2-amino-[1,2,4]triazolo[1,5-a]pyridin-7-yl)-N-(2,2-difluoro-3-(4-fluorophenyl)-3-hydroxypropyl)-2-fluoro-6-(methyl-d3)benzamide] | 5.7 |  | 0.8
[2H]C([2H])([2H])c1ccc(C(O)C(F)(F)CNC(=O)c2c(C([2H])([2H])[2H])ccc(-c3ccn4nc(N)nc4c3)c2F)cc1 (single isomer, unassigned) [Example 200, 3-(2-amino-[1,2,4]triazolo[1,5-a]pyridin-7-yl)-N-(2,2-difluoro-3-hydroxy-3-(4-(methyl-d3)phenyl)propyl)-2-fluoro-6-(methyl-d3)benzamide] | 4.7 |  | 0.8
[2H]C([2H])(CC([2H])(O)c1ccc(Cl)cc1)NC(=O)c1c(Cl)ccc(-c2ccn3nc(N)nc3c2)c1F (centres unmarked) [Example 75, 3-(2-amino-[1,2,4]triazolo[1,5-a]pyridin-7-yl)-6-chloro-N-(3-(4-chlorophenyl)-3-hydroxypropyl-1,1,3-d3)-2-fluorobenzamide] | 3.2 | 4.3 | 
Cc1ccc(-c2ccn3nc(N)nc3c2)c(F)c1C(=O)NCC(F)(F)C(O)c1c(F)cc(F)cc1F (single isomer, unassigned) [Example 283, 3-(2-amino-[1,2,4]triazolo[1,5-a]pyridin-7-yl)-N-(2,2-difluoro-3-hydroxy-3-(2,4,6-trifluorophenyl)propyl)-2-fluoro-6-methylbenzamide] | 0.5 |  | 1
Nc1nc2cc(-c3ccc(Cl)c(C(=O)NCC(F)(F)C(O)c4cccc(F)c4F)c3F)ccn2n1 (single isomer, unassigned) [Example 166, 3-(2-amino-[1,2,4]triazolo[1,5-a]pyridin-7-yl)-6-chloro-N-(3-(2,3-difluorophenyl)-2,2-difluoro-3-hydroxypropyl)-2-fluorobenzamide] | 2.1 |  | 5.1
[2H]C([2H])([2H])c1ccc(-c2ccn3nc(N)nc3c2)c(F)c1C(=O)NCC1(C(O)c2ccc(F)cc2)CC1 (single isomer, unassigned) [Example 308, 3-(2-amino-[1,2,4]triazolo[1,5-a]pyridin-7-yl)-2-fluoro-N-((1-((4-fluorophenyl) (hydroxy)methyl)cyclopropyl)methyl)-6-(methyl-d3)benzamide] | 12 | 9 | 
[2H]C([2H])([2H])c1ccc(-c2ccn3nc(N)nc3c2)c(F)c1C(=O)NCC(F)(F)C(O)(c1ccc(F)cc1)C([2H])([2H])[2H] (single isomer, unassigned) [Example 244, 3-(2-amino-[1,2,4]triazolo[1,5-a]pyridin-7-yl)-N-(2,2-difluoro-3-(4-fluorophenyl)-3-hydroxybutyl-4,4,4-d3)-2-fluoro-6-(methyl-d3)benzamide] | 2.7 | 1.2 | 
Cc1ccc(-c2ccn3nc(N)nc3c2)c(F)c1C(=O)NCC(F)(F)[C@@H](OC(N)=O)c1ccc(F)cc1 [Example 276, (S)-3-(3-(2-amino-[1,2,4]triazolo[1,5-a]pyridin-7-yl)-2-fluoro-6-methylbenzamido)-2,2-difluoro-1-(4-fluorophenyl)propyl carbamate] | 3.7 |  | 8.4
Nc1nc2cc(-c3ccc(Cl)c(C(=O)NCC(F)(F)C(O)c4cccc(Cl)c4)c3F)ccn2n1 (centres unmarked) [Example 193, 3-(2-amino-[1,2,4]triazolo[1,5-a]pyridin-7-yl)-6-chloro-N-(3-(3-chlorophenyl)-2,2-difluoro-3-hydroxypropyl)-2-fluorobenzamide] | 8.7 | 15 | 
Cc1ccc(-c2ccn3nc(N)nc3c2)c(F)c1C(=O)NCCC(O)c1cccc(Cl)c1 (single isomer, unassigned) [Example 45, 3-(2-amino-[1,2,4]triazolo[1,5-a]pyridin-7-yl)-N-(3-(3-chlorophenyl)-3-hydroxypropyl)-2-fluoro-6-methylbenzamide] | 3 | 7.4 | 
[2H]C([2H])([2H])c1ccc(C(O)C(F)(F)CNC(=O)c2c(C([2H])([2H])[2H])ccc(-c3ccn4nc(N)nc4c3)c2F)cc1 (single isomer, unassigned) [Example 201, 3-(2-amino-[1,2,4]triazolo[1,5-a]pyridin-7-yl)-N-(2,2-difluoro-3-hydroxy-3-(4-(methyl-d3)phenyl)propyl)-2-fluoro-6-(methyl-d3)benzamide] | 6.7 | 0.9 | 
Cc1ccc(-c2ccn3nc(N)nc3c2)c(F)c1C(=O)NCCC(O)c1cccc(F)c1 (single isomer, unassigned) [Example 64, 3-(2-amino-[1,2,4]triazolo[1,5-a]pyridin-7-yl)-2-fluoro-N-(3-(3-fluorophenyl)-3-hydroxypropyl)-6-methylbenzamide] | 12 | 8 | 
Cc1ccc(-c2ccn3nc(N)nc3c2)c(F)c1C(=O)NCC(C)(F)C(O)c1ccc(F)cc1 (single isomer, unassigned) [Example 203, 3-(2-amino-[1,2,4]triazolo[1,5-a]pyridin-7-yl)-2-fluoro-N-(2-fluoro-3-(4-fluorophenyl)-3-hydroxy-2-methylpropyl)-6-methylbenzamide] | 5.6 | 2.7 | 
